In paper PMC10275983 (Nature Communications, 2023):

Assays:
[1] = tested on: SARS-CoV-2; details: combined with ritonavir; initiated within three days of symptom onset; interim results of Phase II-III studies; cited from earlier work
Text: Small molecule antivirals offer potential advantages over antibody therapeutics. […] During the early months of the pandemic, huge multinational effort was initiated to repurpose already approved antiviral or immunosuppressive drugs. One such drug was remdesivir, a nucleoside analog chain terminator that blocks replication of viral RNA[17].

[2] = tested on: SARS-CoV-2/human/Liverpool/REMRQ0001/2020; assay type: in vivo

Compound: CC(C)(C)[C@H](NC(=O)C(F)(F)F)C(=O)N1C[C@H]2[C@@H]([C@H]1C(=O)N[C@H](C#N)C[C@@H]1CCNC1=O)C2(C)C [nirmatrelvir]
- reduced hospitalization risk [1]: 89%

Compound: CCC(CC)COC(=O)[C@H](C)N[P@](=O)(OC[C@H]1O[C@@](C#N)(c2ccc3c(N)ncnn23)[C@H](O)[C@@H]1O)Oc1ccccc1 [remdesivir]
- inflammatory markers (cytokine and chemokine transcripts) in lung and nasal turbinate ([2]; K18 hACE2 mice N=4, day 4 post-infection, same dosing, qPCR): remained substantially elevated
- infectious virus in the lungs (plaque assay on lung homogenate) ([2]; mouse, in vivo): only partially decreased viraemia
- viral RNA levels in nasal turbinates (qPCR, sub-genomic E gene) ([2]; mouse, in vivo): no significant impact
